# Data from patent US20100160209A1, “Composition and Method for Increasing Cell Permeability of a Compound” (SmithKline Beecham Corporation, priority 2006, published 2010).
# Ends that are not written are not given here. Peptide text beside a SMILES is read from it. * marks the point of attachment. Boc = CC(C)(C)OC(=O)*; OSu = O=C1CCC(=O)N1O*
# How the values were obtained:
# [1] = solubility in aqueous solutions; format: physicochemical; conditions: for CPS-Cys particularly in slightly acidic pH
# Description: (§1) Initial synthesis was of the 11-mer CPS peptide in which its C-terminal end was an N-hydroxysuccinimide (NHS) ester. This CPS-OSu peptide was expected to be highly reactive to the amine groups of human insulin and thus facilitate the conjugation reactions between CPS and Insulin. […] As a result, this CPS-OSu activated ester was cyclized via an internal amide bond. To overcome this side-reaction, a derivative of the CPS-OSu peptide in which all three amine groups of this peptide were protected by a Boc group (tert-Butyloxycarbonyl) was also made.
# (§2) The 12-mer CPS-Cys peptide Sequence of CPS-Cys Peptide: K-L-K-L-A-L-A-L-A-L-A-C (Seq ID no. 2) was synthesized by conventional solid-phase peptide synthesis methodology. Standard synthesis protocols based on Fmoc chemistry were used. After synthesis, the crude peptides were cleaved from the solid support and purified by C18 reverse-phase HPLC eluted with acetonitrile aqueous buffers. The purified peptide was characterized by analytical HPLC analysis (FIG. 2, top panel) and mass spectrometry analysis (FIG. 2a, bottom panel, calculated MW=1227.6 Da and measured MW (MH+)=1227.9 Da).
# CCK-releasing cells = conditions: "is said to elicit"; assay of WO 01/41812; cited from earlier work
# stability of the peptide = format: physicochemical; conditions: CPS-OSu: reacts with its own amine groups, cyclized via internal amide bond
# Description: as §1, §2
Molecule,solubility in aqueous solutions [1],increase in CCK secretion (CCK-releasing cells),stability of the peptide (stability of the peptide)
CC(C)C[C@H](NC(=O)[C@H](C)NC(=O)[C@H](CC(C)C)NC(=O)[C@H](CCCCNC(=O)OC(C)(C)C)NC(=O)[C@H](CC(C)C)NC(=O)[C@H](CCCCNC(=O)OC(C)(C)C)NC(=O)OC(C)(C)C)C(=O)N[C@@H](C)C(=O)N[C@@H](CC(C)C)C(=O)N[C@@H](C)C(=O)N[C@@H](CC(C)C)C(=O)N[C@@H](C)C(=O)ON1C(=O)CCC1=O [amine-protected peptide] (Boc-K(Boc)LK(Boc)LALALALA-OSu),poor solubility,–,–
"STFWAYQPDGDNDPTDYQKYEHTSSPSQLLAPGDYPCVIEV (listed as Homo sapiens) [Native LCRF, luminal cholecystokinin releasing factor]",–,~300%,–
"KLKLALALALAC [CPS-Cys peptide, K-L-K-L-A-L-A-L-A-L-A-C]",good solubility,–,stable
